Assay results: PubChem BioAssay AID330 (DTP/NCI, 2004)
Where “and” joins values, the source holds several entries; their conditions need not be identical. Identical values can stand only once. Inconclusive results and toxic doses are left out. The calls were made as follows: active = survival T/C of 150% or more; inactive = T/C below 125% in these data. Peptide text beside a SMILES is read from it. * marks the point of attachment. Bn = c1ccc(C*)cc1

Test system: P388 leukemia ip, CD2F1 mice, survival T/C
Assay: NCI In Vivo Anticancer Drug Screen. Data for tumor model P388 Leukemia (intraperitoneal) in CD2F1 (CDF1) mice
Details: endpoint: median survival time, higher = longer survival
Summary of the method: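 Mice carrying the transplanted tumor received test compound or vehicle. Survival was recorded in each group, and the value is the treated-group measurement divided by that of the vehicle-treated control group.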

[1] = dose: 50.0 mg/kg/injection, schedule: Q01DX009 (ip), vehicle: saline with Tween-80
[2] = dose: 12.5 mg/kg/injection, schedule: Q01DX005 (ip), vehicle: saline with Tween-80
[3] = dose: 25.0 mg/kg/injection, schedule: Q01DX005 (ip), vehicle: saline with Tween-80
[4] = dose: 50.0 mg/kg/injection, schedule: Q01DX005 (ip), vehicle: saline with Tween-80
[5] = dose: 100.0 mg/kg/injection, schedule: Q01DX005 (ip), vehicle: saline with Tween-80
[6] = dose: 100.0 mg/kg/injection, schedule: Q04DX003 (ip), vehicle: saline with Tween-80
[7] = dose: 200.0 mg/kg/injection, schedule: Q04DX003 (ip), vehicle: saline with Tween-80
[8] = dose: 60.0 mg/kg/injection, schedule: Q01DX005 (ip), vehicle: saline
[9] = dose: 200.0 mg/kg/injection, schedule: Q01DX005 (ip), vehicle: saline with Tween-80
[10] = dose: 25.0 mg/kg/injection, schedule: Q01DX005 (ip), vehicle: Klucel (hydroxypropylcellulose) (HPC)
[11] = dose: 50.0 mg/kg/injection, schedule: Q01DX005 (ip), vehicle: Klucel (hydroxypropylcellulose) (HPC)
[12] = dose: 100.0 mg/kg/injection, schedule: Q01DX005 (ip), vehicle: Klucel (hydroxypropylcellulose) (HPC)
[13] = dose: 30.0 mg/kg/injection, schedule: Q01DX005 (ip), vehicle: saline
[14] = dose: 60.0 mg/kg/injection, schedule: Q01DX005 (ip), vehicle: saline with Tween-80
[15] = dose: 120.0 mg/kg/injection, schedule: Q01DX005 (ip), vehicle: saline with Tween-80
[16] = dose: 240.0 mg/kg/injection, schedule: Q01DX005 (ip), vehicle: saline with Tween-80

Measured: T/C

CC(C)N(C(C)C)C(C(=O)OCC(O)C(O)C(O)C(O)C(=O)O)N(C(C)C)C(C)C (stereo unspecified)
inactive: dose: 50.0 mg/kg/injection, schedule: Q01DX009 (ip), vehicle: Klucel (hydroxypropylcellulose) (HPC) 113 % of control | dose: 100.0 mg/kg/injection, schedule: Q01DX009 (ip), vehicle: Klucel (hydroxypropylcellulose) (HPC) 97 % of control | dose: 200.0 mg/kg/injection, schedule: Q01DX009 (ip), vehicle: Klucel (hydroxypropylcellulose) (HPC) 111 % of control

CC(C)(C)c1ccc(Sc2cccc3c2C(=O)c2c(Sc4cccc(F)c4)cccc2C3=O)cc1
inactive: dose: 100.0 mg/kg/injection, schedule: Q04DX002 (ip), vehicle: saline with Tween-80 99 % of control | dose: 200.0 mg/kg/injection, schedule: Q04DX002 (ip), vehicle: saline with Tween-80 89 % of control | dose: 400.0 mg/kg/injection, schedule: Q04DX002 (ip), vehicle: saline with Tween-80 95 % of control

CCCSc1nc2c(N)nc(-c3ccccc3)nc2nc1N
inactive: [1] 108 % of control | dose: 100.0 mg/kg/injection, schedule: Q01DX009 (ip), vehicle: saline with Tween-80 105 % of control | dose: 200.0 mg/kg/injection, schedule: Q01DX009 (ip), vehicle: saline with Tween-80 105 % of control

O=[N+]([O-])C(c1ccccc1)C(c1ccccc1)[N+](=O)[O-] (stereo unspecified)
inactive: [2] 98 % of control | [3] 101 % of control | [4] 109 % of control and 112 % of control and 119 % of control | [5] 109 % of control and 110 % of control

NC(=S)NNC(=O)C(Cc1ccccc1)NC(=O)OCc1ccccc1 (stereo unspecified)
inactive: [1] 93 % of control

CN1CCCC(CN2c3ccccc3Sc3ccccc32)C1 (stereo unspecified)
inactive: [2] 100 % of control | [3] 102 % of control | [4] 104 % of control and 105 % of control | [5] 111 % of control

COc1cc2c(C)c3ccccc3c(C)c2c2ccccc12
inactive: dose: 100.0 mg/kg/injection, schedule: Q01DX001 (ip), vehicle: Klucel (hydroxypropylcellulose) (HPC) 101 % of control | dose: 200.0 mg/kg/injection, schedule: Q01DX001 (ip), vehicle: Klucel (hydroxypropylcellulose) (HPC) 110 % of control | dose: 400.0 mg/kg/injection, schedule: Q01DX001 (ip), vehicle: Klucel (hydroxypropylcellulose) (HPC) 105 % of control

Cc1cc(=O)c2c(=O)[nH][nH]c2[nH]1
inactive: dose: 50.0 mg/kg/injection, schedule: Q04DX003 (ip), vehicle: saline with Tween-80 100 % of control | [6] 90 % of control | [7] 90 % of control

CCCCCCCCN1CSC(=S)N(c2ccc3[nH]c(=S)sc3c2)C1
inactive: dose: 6.25 mg/kg/injection, schedule: Q01DX009 (ip), vehicle: Klucel (hydroxypropylcellulose) (HPC) 94 % of control | dose: 12.5 mg/kg/injection, schedule: Q01DX009 (ip), vehicle: Klucel (hydroxypropylcellulose) (HPC) 106 % of control | dose: 25.0 mg/kg/injection, schedule: Q01DX009 (ip), vehicle: Klucel (hydroxypropylcellulose) (HPC) 94 % of control

NCC(=O)NCC(=O)NC(Cc1ccc(OCc2ccccc2)cc1)C(=O)NC(CCCN=C(N)N)C(=O)O (stereo unspecified) (H-GGY(Bn)R-OH; configuration not given here)
inactive: [8] 95 % of control | dose: 120.0 mg/kg/injection, schedule: Q01DX005 (ip), vehicle: saline 100 % of control | dose: 240.0 mg/kg/injection, schedule: Q01DX005 (ip), vehicle: saline 100 % of control

O=C(OCc1ccccc1)C(Cc1ccccc1)NC(=O)C(Cc1ccc(O)cc1)N(C(=O)OCc1ccccc1)C(=O)OCc1ccccc1 (stereo unspecified)
inactive: [4] 103 % of control | [5] 100 % of control | [9] 91 % of control

CCCCCCCCCCN(CCCCCCCCCC)CC(=O)c1ccc2cc(Br)c3ccccc3c2c1
inactive: [10] 96 % of control | [11] 89 % of control | [12] 98 % of control

CC(CN(C)C)C(=O)/C=C/c1ccc(F)cc1 (stereo unspecified)
inactive: [13] 100 % of control | [8] 101 % of control and 110 % of control

Clc1ccc(C[n+]2ccccc2)cc1Cl
inactive: dose: 5.0 mg/kg/injection, schedule: Q04DX003 (ip), vehicle: saline 120 % of control | dose: 10.0 mg/kg/injection, schedule: Q04DX003 (ip), vehicle: saline 110 % of control | dose: 20.0 mg/kg/injection, schedule: Q04DX003 (ip), vehicle: saline 110 % of control

CC(C)CC1NC(=O)C2N=C(OC2C)C2CSSCC(NC(=O)c3csc1n3)C1=NC(C(=O)NC(CC(C)C)c3nc(cs3)C(=O)N2)C(C)O1 (stereo unspecified)
inactive: dose: 0.2 mg/kg/injection, schedule: Q01DX005 (ip), vehicle: DMSO 97 % of control | dose: 0.4 mg/kg/injection, schedule: Q01DX005 (ip), vehicle: DMSO 96 % of control | dose: 0.8 mg/kg/injection, schedule: Q01DX005 (ip), vehicle: DMSO 90 % of control | dose: 1.5 mg/kg/injection, schedule: Q01DX005 (ip), vehicle: DMSO 97 % of control

O=C(OCC(Cl)(Cl)Cl)N1[C@@H]2C=C[C@@H](N1C(=O)OCC(Cl)(Cl)Cl)[C@@]13CC(OCc4ccc(Br)cc4)CC21O3 (stereo partly specified)
inactive: [11] 105 % of control | [12] 95 % of control | dose: 200.0 mg/kg/injection, schedule: Q01DX005 (ip), vehicle: Klucel (hydroxypropylcellulose) (HPC) 95 % of control

CCO/C=C1/N=C(c2ccc(OC)cc2OC)OC1=O
inactive: [14] 95 % of control | [15] 104 % of control | [16] 106 % of control

CC(=O)c1cccc(OC(=O)Nc2ccccc2)c1
inactive: [4] 96 % of control | [5] 90 % of control | [9] 98 % of control

CCC(c1ccc(OC(=O)Cc2ccc(N(CCCl)CCCl)cc2)cc1)C(CC)c1ccc(OC(=O)Cc2ccc(N(CCCl)CCCl)cc2)cc1 (stereo unspecified)
inactive: dose: 80.0 mg/kg/injection, schedule: Q01DX009 (ip), vehicle: saline with Tween-80 92 % of control | dose: 120.0 mg/kg/injection, schedule: Q01DX009 (ip), vehicle: saline with Tween-80 93 % of control | dose: 180.0 mg/kg/injection, schedule: Q01DX009 (ip), vehicle: saline with Tween-80 89 % of control | dose: 270.0 mg/kg/injection, schedule: Q01DX009 (ip), vehicle: saline with Tween-80 90 % of control | dose: 405.0 mg/kg/injection, schedule: Q01DX009 (ip), vehicle: saline with Tween-80 92 % of control

Cc1c(-c2ccc(C3CCCCC3)cc2)nc2ccc(F)cc2c1C(=O)O
inactive: dose: 3.12 mg/kg/injection, schedule: Q01DX005 (ip), vehicle: Klucel (hydroxypropylcellulose) (HPC) 104 % of control | dose: 6.25 mg/kg/injection, schedule: Q01DX005 (ip), vehicle: Klucel (hydroxypropylcellulose) (HPC) 99 % of control | dose: 12.5 mg/kg/injection, schedule: Q01DX005 (ip), vehicle: Klucel (hydroxypropylcellulose) (HPC) 110 % of control | [10] 99 % of control

O=C1OC(=O)C(c2ccccc2)(c2ccccc2)C1c1ccccc1 (stereo unspecified)
inactive: [6] 112 % of control | [7] 119 % of control | dose: 400.0 mg/kg/injection, schedule: Q04DX003 (ip), vehicle: saline with Tween-80 112 % of control

O=C1Nc2ccccc2C(=O)C1(O)c1ccccc1 (stereo unspecified)
inactive: dose: 60.0 mg/kg/injection, schedule: Q01DX005 (ip), vehicle: Klucel (hydroxypropylcellulose) (HPC) 105 % of control | dose: 120.0 mg/kg/injection, schedule: Q01DX005 (ip), vehicle: Klucel (hydroxypropylcellulose) (HPC) 103 % of control | dose: 240.0 mg/kg/injection, schedule: Q01DX005 (ip), vehicle: Klucel (hydroxypropylcellulose) (HPC) 94 % of control

COc1cc(/C=N/NC(=O)CNC(=O)c2ccccc2)ccc1O
inactive: [14] 93 % of control | [15] 95 % of control | [16] 94 % of control

CC(C)c1nccn1Cc1ccccc1
inactive: dose: 15.0 mg/kg/injection, schedule: Q01DX005 (ip), vehicle: saline 101 % of control | [13] 99 % of control | [8] 101 % of control and 90 % of control

O=C(Nc1ccccc1F)N(CCO)C1CCCCC1
inactive: [14] 93 % of control | [15] 93 % of control | [16] 98 % of control

COC(=O)CC/C=N/NC(N)=O
inactive: dose: 50.0 mg/kg/injection, schedule: Q01DX009 (ip), vehicle: saline 96 % of control | dose: 100.0 mg/kg/injection, schedule: Q01DX009 (ip), vehicle: saline 114 % of control | dose: 200.0 mg/kg/injection, schedule: Q01DX009 (ip), vehicle: saline 114 % of control
